The molecules below were run against Nociceptin receptor (Homo sapiens, UniProt P41146) (assay: Cell-Based NOP Assay: Formula (I) compounds were tested for antagonism of the nociceptin receptor (NOP) in a cell-based cAMP assay, using the LANCE cAMP Detection Kit, Perkin Elmer (Waltham, Mass.). This assay (LANCE cAMP) is a homogeneous, time-resolved fluorescence resonance energy transfer (TR-FRET) immunoassay designed to measure cAMP produced upon modulation of adenylyl cyclase activity by G protein-coupled receptors (GPCRs).ProtocolCells expressing human opioid NOP (ValiScreen cell line, cat #ES-230-C Perkin Elmer (Waltham, Mass.) were dispensed in simulation buffer (5 mM Hepes, 0.1% BSA, 0.5 mM IBMX in Hanks Buffered Saline Solution) at 2.5 μL cells per well (400 cells/well) into a 1536 white TC-treated assay plate. Compound was then added and plates were incubated for 15 minutes at room temperature. To each well was added 2.5 μL of a solution containing forskolin (3 μM final) and nociceptin peptide (390 pM final) diluted in stimulation buffer, and the plates were incubated for 30 minutes at room temperature. To each well was dispensed 5 μL of LANCE Ultra detection (1:300 dilution of anti-cAMP ULight with a 1:100 dilution of Eu-cAMP tracer diluted in cAMP Detection Buffer) reagent, and the plates were incubated for 1 hr at room temperature. The plate was then read on the ViewLux microplate reader (Perkin Elmer, Waltham, Mass.) using the LANCE 1536 protocol with 60 second exposure times and 50 μs delay. This protocol has an excitation wavelength of 340 nm (DUG11 filter) and emission wavelengths of 615 nm (Eu-Donor) and 665 nm (Alexa 647 cAMP antibody acceptor).Data AnalysisData was analyzed, normalized, and visualized using ACAS (John McNeil & Co.). Efficacy was calculated using activity of the vehicle (DMSO) as 0% efficacy and the activity of the corresponding reference positive control (SCH 221510, Tocris Bioscience (Pittsburgh, Pa.), Catalog number 3240) as 100% efficacy. Activity was calculated as the ratio of donor and acceptor emissions. All curve fits and IC50 determinations were performed using a non-linear regression model. The IC50 value was measured as the concentration at which half-maximal response was calculated.).
Chain of Nociceptin receptor (P41146 whole entry): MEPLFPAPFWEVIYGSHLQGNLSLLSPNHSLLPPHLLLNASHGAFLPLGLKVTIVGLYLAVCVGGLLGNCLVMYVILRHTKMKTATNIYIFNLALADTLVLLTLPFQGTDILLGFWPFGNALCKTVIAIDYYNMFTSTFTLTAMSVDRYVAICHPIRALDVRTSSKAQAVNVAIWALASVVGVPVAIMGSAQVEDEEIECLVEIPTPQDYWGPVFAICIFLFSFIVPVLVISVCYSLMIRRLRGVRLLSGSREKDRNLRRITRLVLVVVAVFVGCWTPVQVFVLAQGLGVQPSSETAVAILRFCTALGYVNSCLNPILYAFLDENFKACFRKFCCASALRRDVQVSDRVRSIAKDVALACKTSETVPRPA

SMILES	IC50 [nM]
NC(=O)C1(NCC[C@H]2CC[C@@H](c3ccc(F)cc3Cl)CC2)CCCOC1 (some centres undefined)	100 to 1000
NC(=O)C1(NCCC2CCC(c3ccc(F)cc3F)CC2)CCCC1 (centres undefined)	100 to 1000
CC1(NCC[C@H]2CC[C@@H](c3ncc(F)cc3Cl)CC2)CCNC(=O)C1 (some centres undefined)	100 to 1000
CC1(NCCC2CCC(c3ccccc3Cl)CC2)CCOCC1 (centres undefined)	100 to 1000
CC(=O)N1CCC(NCCC2CCC(c3ccc(F)cc3C)CC2)CC1 (centres undefined)	100 to 1000
NC(=O)C1(NCC[C@H]2CC[C@H](c3ccc(F)cc3F)CC2)CCOCC1	100 to 1000
Fc1ccc(Cl)c(C2CCC(CCNC3CCCCC3)CC2)c1 (centres undefined)	100 to 1000
CC1(NCCC2CCC(c3ncc(F)cc3Cl)CC2)CCOCC1 (centres undefined)	100 to 1000
CN1CCC(NCCC2CCC(c3c(F)cccc3Cl)CC2)CC1 (centres undefined)	100 to 1000
NC(=O)C1(NCCC2CCC(c3ccccc3Cl)CC2)CCCC1 (centres undefined)	100 to 1000
Cc1c(C#N)cccc1[C@H]1CC[C@H](CCNC2CCOCC2)CC1	100 to 1000
CC1(NCCC2CCC(c3ncccc3Cl)CC2)CCOCC1 (centres undefined)	100 to 1000
Cc1ccncc1[C@H]1CC[C@@H](CCNC2CCOCC2)CC1	100 to 1000
CC(=O)N1CCC(NCCC2CCC(c3ccc(Cl)cc3F)CC2)CC1 (centres undefined)	100 to 1000
CC1(NCCC2CCC(c3cc(F)ccc3Cl)CC2)CCCC1 (centres undefined)	100 to 1000
Cc1cccnc1[C@H]1CC[C@H](CCNC2CCOCC2)CC1	100 to 1000
Cc1cnccc1C1CCC(CCNC2CCOCC2)CC1 (centres undefined)	100 to 1000
NC(=O)N1CCC(NCCC2CCC(c3ncc(F)cc3Cl)CC2)CC1 (centres undefined)	100 to 1000
Cc1cccnc1C1CCC(CCNC2(C)CCCC2)CC1 (centres undefined)	100 to 1000
Cc1cnccc1[C@H]1CC[C@H](CCNC2CCOCC2)CC1	100 to 1000
Cc1cnccc1C1CCC(CCNC2CCCCC2)CC1 (centres undefined)	100 to 1000
Oc1cccc([C@H]2CC[C@H](CCNC3CCOCC3)CC2)c1	100 to 1000
Cc1cnccc1[C@H]1CC[C@@H](CCNC2CCOCC2)CC1	100 to 1000
Cc1cc(F)ccc1C1CCC(CCNC2(C)CCOCC2)CC1 (centres undefined)	100 to 1000
CN1CCC(NCCC2CCC(c3cc(F)ccc3Cl)CC2)CC1 (centres undefined)	100 to 1000
NC(=O)C1(NCC[C@H]2CC[C@@H](c3ccc(F)cc3Cl)CC2)CCOC1 (some centres undefined)	100 to 1000
Cc1cccnc1C1CCC(CCNC2CCCC2)CC1 (centres undefined)	100 to 1000
NC(=O)C1(NCCC2CCC(c3cc(F)ccc3Cl)CC2)CCCC1 (centres undefined)	100 to 1000
Cc1cccnc1C1CCC(CCNC2CCCCC2)CC1 (centres undefined)	100 to 1000
O=C1C[C@@H](NCC[C@H]2CC[C@H](c3ncc(F)cc3Cl)CC2)CCN1	100 to 1000

The next lines start with the values.

IC50 [nM]	SMILES
100 to 1000	COCC1(NCCC2CCC(c3cnccc3C)CC2)CCOCC1 (centres undefined)
100 to 1000	CN1CCC(NCCC2CCC(c3ccc(Cl)cc3F)CC2)CC1 (centres undefined)
100 to 1000	CC1(NCCC2CCC(c3ccccc3Cl)CC2)CCCC1 (centres undefined)
100 to 1000	CC1(NCCC2CCC(c3ccc(F)cc3F)CC2)CCCC1 (centres undefined)
100 to 1000	Oc1cccc([C@H]2CC[C@@H](CCNC3CCOCC3)CC2)c1
100 to 1000	Cc1ccncc1[C@H]1CC[C@H](CCNC2CCOCC2)CC1
100 to 1000	Cc1cc(F)ccc1C1CCC(CCNC2CCCCC2)CC1 (centres undefined)
100 to 1000	O=C(NCC1CC1)C1(NCC[C@H]2CC[C@@H](c3ccc(F)cc3Cl)CC2)CCCC1
100 to 1000	NC(=O)C1(NCC[C@H]2CC[C@@H](c3c(F)cc(F)cc3F)CC2)CCOCC1
100 to 1000	Cc1nccnc1[C@H]1CC[C@@H](CCNC2CCOCC2)CC1
100 to 1000	Clc1cccnc1C1CCC(CCNC2CCCCC2)CC1 (centres undefined)
100 to 1000	CN(C)C(=O)C1(NCC[C@H]2CC[C@@H](c3ccc(F)cc3Cl)CC2)CCCC1
100 to 1000	Cc1cc(F)c(F)cc1[C@H]1CC[C@H](CCNC2(C(N)=O)CCOCC2)CC1
100 to 1000	Cc1c(C#N)cccc1[C@H]1CC[C@@H](CCNC2CCOCC2)CC1
100 to 1000	CNC(=O)C1(NCCC2CCC(c3ncccc3Cl)CC2)CCCC1 (centres undefined)
100 to 1000	CN1CCC(NCCC2CCC(c3ncc(F)cc3Cl)CC2)CC1 (centres undefined)
100 to 1000	COCC1(NCCC2CCC(c3ncc(F)cc3Cl)CC2)CCOCC1 (centres undefined)
100 to 1000	COCC1(NCCC2CCC(c3cccc(F)c3Cl)CC2)CCOCC1 (centres undefined)
100 to 1000	CC1(NCCC2CCC(c3ncccc3Cl)CC2)CCCC1 (centres undefined)
100 to 1000	CNC(=O)C1(NCCC2CCC(c3ccc(Cl)cc3F)CC2)CCCC1 (centres undefined)
100 to 1000	NC(=O)C1(NCC[C@H]2CC[C@H](c3cccc(F)c3Cl)CC2)CCOCC1
100 to 1000	NC(=O)C1(NCC[C@H]2CC[C@@H](c3cccc(F)c3Cl)CC2)CCOCC1
100 to 1000	Cc1cccnc1C1CCC(CCNC2(C)CCOCC2)CC1 (centres undefined)
< 1	Fc1ccc(C2CCC(CCNC3CCOCC3)CC2)c(Cl)c1 (mixture of isomers)

Source: ChEMBL document CHEMBL5729163, “Substituted cyclohexyl compounds as NOP inhibiiors” (2022)
